In brackets after ≈: the same amount, converted by molar mass. Where a name gives a salt, the structure may show the parent alone. Read-outs that look alike come from different tables or passages of the source. *: point of attachment. Octanoyl = CCCCCCCC(=O)*
What was measured:
P. aeruginosa = test: MIC of biocide actives and formulations, microtiter growth assay
K. pneumoniae = test: as above
microorganisms = test: Triclosan plus sub-toxic levels of peptide on microbial growth; format: cell-based
Method: Effect of combinations of triclosan and sub-toxic levels of peptide on microbial growth is assessed. […] Thus, the potential use rate of triclosan as an antimicrobial is shown to be reduced.

[1] = test system: S. aureus ATCC 33591 (MRSA)
S. cerevisiae ATCC 9763 [2] = test system: S. cerevisiae ATCC 9763
S. cerevisiae ATCC 9763 [3] = test: microbe, parasite or virus in culture; details: Saccharomyces cerevisiae, ATCC9763, read-out: Triclosan MIC
[4] = test system: S. aureus ATCC 33591 (MRSA); test: microbe, parasite or virus in culture; details: Staphylococcus aureus, read-out: Triclosan MIC
[5] = test system: all organisms tested except P. aeruginosa; test: Triclosan plus sub-biocidal peptide, summary over organisms; format: cell-based
Description: Thus, the potential use rate of triclosan as an antimicrobial is reduced.

C. albicans ATCC 10231 [6] = test system: C. albicans ATCC 10231
E. coli ATCC 25922 [7] = test: microbe, parasite or virus in culture; details: Escherichia coli, ATCC25922, read-out: Triclosan MIC
P. aeruginosa ATCC 10145 [8] = test system: P. aeruginosa ATCC 10145
K. pneumoniae ATCC 27736 [9] = test: microbe, parasite or virus in culture; details: Klebsiella pneumoniae, ATCC27736, read-out: Triclosan MIC
E. coli ATCC 25922 [10] = test system: E. coli ATCC 25922
C. albicans ATCC 10231 [11] = test: microbe, parasite or virus in culture; details: Candida albicans, ATCC10231, read-out: Triclosan MIC
P. aeruginosa ATCC 10145 [12] = test: microbe, parasite or virus in culture; details: Pseudomonas aeruginosa, ATCC10145, read-out: Triclosan MIC
K. pneumoniae ATCC 27736 [13] = test system: K. pneumoniae ATCC 27736
[14] = test system: microbes such as Salmonella typhimurium and Clostridium botulinum; format: cell-based; details: food preservative use
E. coli = test: Peptide-containing textile fiber, MIC; format: cell-based, Escherichia coli; details: E. coli in LB media
Description: Peptide compositions comprising peptides of the present invention and at least one biocide or germicide may be applied by coating or spinning effective amounts of peptide onto or into the desired polymer. The peptides may be prepared in an aqueous solution to use as a coating solution or combined with a polymer. […] A peptide and polymer solution or mixture may be made and undergo casting or formation to the desired shaped article, fiber or film. The shaped article, fiber or film may then be quenched in water or methanol, allowed to air dry or dry under an appropriate atmosphere to prevent oxidative reactions.
The resulting solution may be placed into a microscale spinning apparatus and fiber is formed while wet with methanol. The antimicrobial activity of the peptides may be tested in tubes containing LB media innoculated with the peptide-containing fiber and E. coli growing at log phase (1×10^6 to 1×10^7 cells/ml). Aliquots can be taken from the culture tube at periodic intervals and absorbance readings at 600 nm (uv/vis) can be measured in a microcuvette.

[15] = P. aeruginosa, growth inhibited by >90%
[16] = K. pneumoniae, growth inhibited by >90%
[17] = triclosan MIC with octanoyl-RR-NH-octyl at 0.5 ppm
[18] = triclosan MIC with octanoyl-R-NH-octyl at 4 ppm

Molecule: O=CCCCC=O [Aqucar, glutaraldehyde]
- MIC (P. aeruginosa; Pseudomonas aeruginosa): 500 µg/mL
- MIC (K. pneumoniae; Klebsiella pneumoniae): 250 µg/mL

Molecule: CCCCCCCCCCCCNC(=N)N [DGH, dodecylguanidine hydrochloride]
- MIC (P. aeruginosa; Pseudomonas aeruginosa): 10 µg/mL
- MIC (K. pneumoniae; Klebsiella pneumoniae): 2.5 µg/mL

Molecule: N#CSCSC#N [MBT, methylene bis(thiocyanate)]
- MIC (P. aeruginosa; [15]): 0.6 µg/mL
- MIC (K. pneumoniae; [16]): 0.6 µg/mL

Molecule: O=[N+]([O-])C(Br)(CO)CO [Myacide, 2-bromo-2-nitropropane-1,3-diol]
- MIC (P. aeruginosa; Pseudomonas aeruginosa): 1.3 µg/mL
- MIC (K. pneumoniae; Klebsiella pneumoniae): 10 µg/mL

Molecule: Oc1cc(Cl)ccc1Oc1ccc(Cl)cc1Cl [Triclosan, 2,4,4′-trichloro-2′-hydroxydiphenylether]
- inhibitory effect of triclosan with a peptide of the invention in sub-toxic amounts (microorganisms): substantially increase
- Triclosan plus constant [peptide] [1, 17]: 0.002 (0.5 ppm) μg/ml
- Triclosan plus constant [peptide] (S. cerevisiae ATCC 9763 [2]; triclosan MIC with octanoyl-R-NH-octyl at 2 ppm): 2 (2 ppm) μg/ml
- MIC (S. cerevisiae ATCC 9763 [3]): 4 µg/mL (≈ 13.8 µM)
- MIC [4]: 0.015 µg/mL (≈ 0.0518 µM)
- inhibitory effect of triclosan on addition of sub-biocidal amounts of peptide [5]: substantially increased
- Triclosan plus constant [peptide] (C. albicans ATCC 10231 [6]; triclosan MIC with octanoyl-RR-NH-octyl at 2 ppm): 4 (2 ppm) μg/ml
- Triclosan plus constant [peptide] (C. albicans ATCC 10231 [6]; triclosan MIC with octanoyl-RR-NH-octyl at 4 ppm): 2 (4 ppm) μg/ml
- MIC (E. coli ATCC 25922 [7]): 0.002 µg/mL (≈ 0.00691 µM)
- Triclosan plus constant [peptide] (P. aeruginosa ATCC 10145 [8]; [18]): >250 (4 ppm) μg/ml
- MIC (K. pneumoniae ATCC 27736 [9]): 0.061 µg/mL (≈ 0.211 µM)
- Triclosan plus constant [peptide] (E. coli ATCC 25922 [10]; [18]): <0.00003 (4 ppm) μg/ml
- MIC (C. albicans ATCC 10231 [11]): 8 µg/mL (≈ 27.6 µM)
- MIC (P. aeruginosa ATCC 10145 [12]): > 250 µg/mL
- Triclosan plus constant [peptide] (K. pneumoniae ATCC 27736 [13]; [17]): 0.031 (0.5 ppm) μg/ml
- Triclosan plus constant [peptide] (K. pneumoniae ATCC 27736 [13]; triclosan MIC with octanoyl-RR-NH-octyl at 1 ppm): 0.00003 (1 ppm) μg/ml

Molecule: N#CC(Br)(Br)C(N)=O [compound 7287, 2,2-dibromo-3-nitrilo propionamide]
- MIC (P. aeruginosa; [15]): 40.0 µg/mL
- MIC (K. pneumoniae; [16]): 40.0 µg/mL

Molecule: CCCCCCCCNC(=O)[C@H](CCCNC(=N)N)NC(=O)CCCCCCC [octanoyl-R-NH-octyl, octanoyl-R—NH-octyl]
- Peptide MIC (S. cerevisiae ATCC 9763 [2]; ATCC 9763, 19 h): 8 µg/mL
- Peptide MIC (P. aeruginosa ATCC 10145 [8]; ATCC 10145, 19 h): 8 µg/mL
- Peptide MIC (E. coli ATCC 25922 [10]; ATCC 25922, 19 h): 8 µg/mL

Molecule: CCCCCCCCNC(=O)[C@H](CCCNC(=N)N)NC(=O)[C@H](CCCNC(=N)N)NC(=O)CCCCCCC [octanoyl-RR-NH-octyl, octanoyl-RR—NH-octyl]
- Peptide MIC ([1]; ATCC 33591, 19 h): 2 µg/mL
- Peptide MIC (C. albicans ATCC 10231 [6]; ATCC 10231, 19 h): 8 µg/mL
- Peptide MIC (K. pneumoniae ATCC 27736 [13]; ATCC 27736, 19 h): 4 µg/mL

Molecule: Acetyl-Arg-Trp-Arg-Trp-NH2 (Ac-RWRW-NH2)
- MIC [14]: ≦31 μg/ml
- MIC (E. coli): ≦31 μg/ml

Molecule: Decanoyl-Arg-NH-decyl
- MIC [14]: ≦8 μg/ml
- MIC (E. coli): ≦15 μg/ml

Molecule: Nonanoyl-Arg-Arg-NH-nonyl
- MIC (E. coli): ≦2 μg/ml

Molecule: Nonanoyl-Arg-NH-nonyl
- MIC [14]: ≦4 μg/ml

Molecule: Octanoyl-Arg-Ala-NH-octyl
- MIC [14]: ≦15 μg/ml

Molecule: Octanoyl-Arg-Arg-Arg-NH-octyl
- MIC (E. coli): ≦8 μg/ml

Molecule: Octanoyl-Arg-Cys-NH-octyl
- MIC [14]: ≦15 μg/ml

Molecule: Octanoyl-Arg-Phe-Phe-Arg-NH-octyl (Octanoyl-RFFR-{NH‑octyl})
- MIC (E. coli): ≦4 μg/ml

Molecule: Octanoyl-Arg-Trp-NH2
- MIC [14]: ≦15 μg/ml
- MIC (E. coli): ≦15 μg/ml

Molecule: Octanoyl-Arg-Trp-Phe-NH2
- MIC (E. coli): ≦15 μg/ml

Molecule: Octanoyl-Lys-Arg-NH-octyl
- MIC [14]: ≦4 μg/ml

Molecule: n-alkyl (C12-40%, C14-50%, C16-10%) dimethylbenzylammonium chloride [Maquat]
- MIC (P. aeruginosa; [15]): 7.8 µg/mL
- MIC (K. pneumoniae; [16]): 0.6 µg/mL
